In the NIST ThermoML archive (doi:10.1021/je900212d):

Test: xn = mol fraction of the nth substance listed
Settings: 101 kPa, Liquid

O=Cc1ccccc1 [benzaldehyde] + CCCO
Settings | mass density [kg/m3] | viscosity [mPa·s]
288.15 K, x2 = 0.099 | 1038.8 | 1.689
288.15 K, x2 = 0.193 | 1021.8 | 1.661
288.15 K, x2 = 0.3112 | 997.7 | 1.622
288.15 K, x2 = 0.3949 | 980.8 | 1.637
288.15 K, x2 = 0.5004 | 956.4 | 1.645
288.15 K, x2 = 0.5997 | 932.9 | 1.683
288.15 K, x2 = 0.6932 | – | 1.774
288.15 K, x2 = 0.8026 | 875.4 | 1.873
288.15 K, x2 = 0.9046 | 843.1 | 2.075
293.15 K, x2 = 0.0988 | 1034.2 | 1.536
293.15 K, x2 = 0.1927 | 1017 | 1.505
293.15 K, x2 = 0.3108 | 993.2 | 1.468
293.15 K, x2 = 0.3944 | 976.2 | 1.475
293.15 K, x2 = 0.5 | 951.6 | 1.483
293.15 K, x2 = 0.5992 | 928.6 | 1.501
293.15 K, x2 = 0.6927 | – | 1.588
293.15 K, x2 = 0.8023 | 871.4 | 1.669
293.15 K, x2 = 0.9045 | 839.1 | 1.84
298.15 K, x2 = 0.099 | 1029.9 | 1.405
298.15 K, x2 = 0.1929 | 1012.8 | 1.373
298.15 K, x2 = 0.3111 | 989.2 | 1.337
298.15 K, x2 = 0.3948 | 971.3 | 1.333
298.15 K, x2 = 0.5003 | 947 | 1.342
298.15 K, x2 = 0.5996 | 923.7 | 1.363
298.15 K, x2 = 0.693 | – | 1.423
298.15 K, x2 = 0.8025 | 867.6 | 1.491
298.15 K, x2 = 0.9046 | 835.3 | 1.64
303.15 K, x2 = 0.0989 | 1025.9 | 1.292
303.15 K, x2 = 0.1927 | 1008.1 | 1.258
303.15 K, x2 = 0.3108 | 984.8 | 1.224
303.15 K, x2 = 0.3945 | 967 | 1.216
303.15 K, x2 = 0.5 | 942.9 | 1.223
303.15 K, x2 = 0.5993 | 919.5 | 1.237
303.15 K, x2 = 0.6928 | – | 1.287
303.15 K, x2 = 0.8023 | 863.6 | 1.342
303.15 K, x2 = 0.9045 | 831.6 | 1.491
308.15 K, x2 = 0.0988 | 1021.4 | 1.193
308.15 K, x2 = 0.1926 | 1003.4 | 1.158
308.15 K, x2 = 0.3106 | 980.1 | 1.126
308.15 K, x2 = 0.3942 | 962.7 | 1.12
308.15 K, x2 = 0.4997 | 937.8 | 1.117
308.15 K, x2 = 0.599 | 915.5 | 1.128
308.15 K, x2 = 0.6925 | – | 1.169
308.15 K, x2 = 0.8022 | 858.9 | 1.215
308.15 K, x2 = 0.9044 | 827.3 | 1.317
313.15 K, x2 = 0.0986 | 1015.1 | 1.104
313.15 K, x2 = 0.1923 | 997.8 | 1.069
313.15 K, x2 = 0.3102 | 973.8 | 1.039
313.15 K, x2 = 0.3938 | 956.5 | 1.024
313.15 K, x2 = 0.4993 | 934 | 1.026
313.15 K, x2 = 0.5986 | 910.9 | 1.033
313.15 K, x2 = 0.6922 | 894.8 | 1.063
313.15 K, x2 = 0.8019 | 853.6 | 1.099
313.15 K, x2 = 0.9043 | 823.6 | 1.188

ClCCCl [1,2-dichloroethane] + CCCO
Settings | mass density [kg/m3] | viscosity [mPa·s]
288.15 K, x2 = 0.1054 | 1211 | 0.8441
288.15 K, x2 = 0.2095 | 1166.4 | 0.8809
288.15 K, x2 = 0.3124 | 1121.8 | 0.9238
288.15 K, x2 = 0.4141 | 1078.4 | 0.998
288.15 K, x2 = 0.5146 | 1032.4 | 1.1
288.15 K, x2 = 0.6139 | 986 | 1.256
288.15 K, x2 = 0.7121 | 942.8 | 1.464
288.15 K, x2 = 0.8092 | 895.4 | 1.726
288.15 K, x2 = 0.9051 | 843.5 | 2.029
293.15 K, x2 = 0.1054 | 1205 | 0.785
293.15 K, x2 = 0.2096 | 1159.7 | 0.8086
293.15 K, x2 = 0.3126 | 1116.2 | 0.8504
293.15 K, x2 = 0.4143 | 1072.1 | 0.9115
293.15 K, x2 = 0.5148 | 1026.6 | 0.9988
293.15 K, x2 = 0.6141 | 980.6 | 1.139
293.15 K, x2 = 0.7123 | 938.6 | 1.31
293.15 K, x2 = 0.8093 | 890.5 | 1.534
293.15 K, x2 = 0.9052 | 839.4 | 1.795
298.15 K, x2 = 0.1054 | 1199.2 | 0.7324
298.15 K, x2 = 0.2095 | 1154.4 | 0.7472
298.15 K, x2 = 0.3124 | 1109.3 | 0.7831
298.15 K, x2 = 0.4141 | 1067.1 | 0.8368
298.15 K, x2 = 0.5146 | 1021.3 | 0.911
298.15 K, x2 = 0.614 | 976.2 | 1.035
298.15 K, x2 = 0.7122 | 934 | 1.176
298.15 K, x2 = 0.8092 | 885.9 | 1.37
298.15 K, x2 = 0.9052 | 836.3 | 1.603
303.15 K, x2 = 0.1056 | 1192.6 | 0.6845
303.15 K, x2 = 0.2099 | 1147.7 | 0.7003
303.15 K, x2 = 0.3129 | 1104.2 | 0.7255
303.15 K, x2 = 0.4146 | 1061.1 | 0.7704
303.15 K, x2 = 0.5151 | 1016 | 0.8342
303.15 K, x2 = 0.6144 | 970.5 | 0.9344
303.15 K, x2 = 0.7125 | 929.7 | 1.061
303.15 K, x2 = 0.8095 | 882.6 | 1.228
303.15 K, x2 = 0.9053 | 832.8 | 1.441
308.15 K, x2 = 0.1057 | 1183.4 | 0.64
308.15 K, x2 = 0.21 | 1140.7 | 0.6502
308.15 K, x2 = 0.3131 | 1097.2 | 0.6731
308.15 K, x2 = 0.4149 | 1054.9 | 0.7116
308.15 K, x2 = 0.5154 | 1009.5 | 0.7657
308.15 K, x2 = 0.6147 | 964 | 0.8541
308.15 K, x2 = 0.7128 | 924.3 | 0.9603
308.15 K, x2 = 0.8097 | 877.3 | 1.105
308.15 K, x2 = 0.9054 | 827.5 | 1.303
313.15 K, x2 = 0.1058 | 1174.9 | 0.6002
313.15 K, x2 = 0.2103 | 1133.5 | 0.6056
313.15 K, x2 = 0.3134 | 1089 | 0.6256
313.15 K, x2 = 0.4152 | 1047.4 | 0.6588
313.15 K, x2 = 0.5158 | 1004 | 0.706
313.15 K, x2 = 0.615 | 956.7 | 0.7849
313.15 K, x2 = 0.7131 | 918.9 | 0.8728
313.15 K, x2 = 0.8099 | 870.1 | 0.9952
313.15 K, x2 = 0.9055 | 821.5 | 1.176
